Earlier results on six molecules are cited in patent publication US11534424B2, “Compounds and methods for treatment of primary biliary cholangitis” (Arena Pharmaceuticals, Inc., priority 2017, dated 2022).

The conditions of data set [1]: chronic administration.
For data set [2], the system named is experimental autoimmune encephalomyelitis (EAE). The note with it: murine EAE, relative to vehicle.
The test system of data set [3] is collagen induced arthritis (CIA). The note with it: CIA rats.

As for `CC(C)Oc1ccc(-c2nc(-c3cccc4c3CC[C@@H]4NCCO)no2)cc1C#N` [ozanimod], in data set [1], the liver enzyme elevation entry was “liver enzyme elevation has been seen”.

On to `CCCCCCCCc1ccc(CCC(N)(CO)CO)cc1` [fingolimod], for which the liver enzyme elevation result in data set [1] is recorded as “liver enzyme elevation has been seen”.

On to `CC(C)Oc1ncc(-c2nc(-c3cccc4c3ccn4CCCC(=O)O)no2)cc1Cl` [GSK2018682], for which the liver enzyme elevation result in data set [1] is on record as “liver enzyme elevation has been seen”.

Take `CCC/N=C1\S/C(=C\c2ccc(OC[C@H](O)CO)c(Cl)c2)C(=O)N1c1ccccc1C` [ponesimod]: the liver enzyme elevation entry in data set [1] is “liver enzyme elevation has been seen”.

Consider `O=C(O)C[C@H]1CCc2c1[nH]c1ccc(OCc3ccc(C4CCCC4)c(C(F)(F)F)c3)cc21` [Compound 1, (R)-2-(7-(4-cyclopentyl-3-(trifluoromethyl)benzyloxy)-1,2,3,4-tetrahydrocyclopenta[b]indol-3-yl)acetic acid], for which the “disease course, therapeutic administration” value in data set [2] (administered day 18 to day 37, similar to fingolimod) is “reverse the disease relative to vehicle”. Further, in data set [2] (up to day 25), the “onset and severity of disease, prophylactic administration” value is “prevented the onset and severity of disease relative to vehicle up to day 25”. Besides, the “histological parameters in the knees and ankles” value in data set [3] is “Improvement in histological parameters”.

`CCc1cc(/C(C)=N/OCc2ccc(C3CCCCC3)c(C(F)(F)F)c2)ccc1CN1CC(C(=O)O)C1` [siponimod]: the liver enzyme elevation result in data set [1] is on record as “liver enzyme elevation has been seen”.
